In US20020111274A1, “1-alkyl-3-[1-(substituted phenyl) benzotriazol-6-yl] uracils” (BASF Aktiengesellschaft, priority 2000, published 2002):

Columns and labels:
Set-up in all cases: scale not given here
[1] = tested on: CASOB Sicklepod; experiment: Postemergence herbicidal evaluation, CASOB; type: in vivo, Cassia obtusifolia, L.; conditions: rated two - three weeks after treatment
Summary of the method: (§1)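 Ratings from greenhouse plants scored about two to three weeks after a foliar spray; data from multiple tests averaged. Seedlings about two weeks old received roughly 0.006–0.400 kg/ha active compound in 80/20 acetone/water with 1.0% methylated seed oil.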

[2] = tested on: ZEAMX Corn, Field; experiment: Postemergence herbicidal evaluation, ZEAMX; type: in vivo, Zea mays, L. (Sammel-Bezeichnung); conditions: rated two - three weeks after treatment
Summary of the method: as §1

[3] = tested on: SETVI Foxtail, Green; experiment: Preemergence herbicidal evaluation, SETVI; type: in vivo, Setaria viridis, (L.) Beau; conditions: rated four to five weeks after treatment
Summary of the method: (§2)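 Seeds mixed with potting soil in cups, then sprayed preemergence with aqueous acetone test solution at about 0.013 to 0.800 kg per hectare equivalent. Cups kept under standard greenhouse care; plants rated on a visual scale four to five weeks after treatment.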

[4] = tested on: AMBEL Ragweed, Common; experiment: Preemergence herbicidal evaluation, AMBEL; type: in vivo, Ambrosia artemisifolia, L.; conditions: rated four to five weeks after treatment
Summary of the method: as §2

[5] = tested on: IPOHE Morningglory, Ivyleaf; experiment: Preemergence herbicidal evaluation, IPOHE; type: in vivo, Ipomoea hederacea, (L.) Jacq.; conditions: rated four to five weeks after treatment
Summary of the method: as §2

[6] = tested on: TRZAWR Wheat, Winter, cv Riband; experiment: Preemergence herbicidal evaluation, TRZAWR; type: in vivo, Triticum aestivum; conditions: rated four to five weeks after treatment
Summary of the method: as §2

[7] = tested on: GALAP Galium; experiment: Postemergence herbicidal evaluation, GALAP; type: in vivo, Galium aparine; conditions: rated two - three weeks after treatment
Summary of the method: as §1

[8] = tested on: CHEAL Lambsquarters, Common; experiment: Preemergence herbicidal evaluation, CHEAL; type: in vivo, Chenopodium album, L.; conditions: rated four to five weeks after treatment
Summary of the method: as §2

[9] = tested on: GLXMAW Soybean, Williams; experiment: Postemergence herbicidal evaluation, GLXMAW; type: in vivo, Glycine max, (L.) Merr. cv Williams; conditions: rated two - three weeks after treatment
Summary of the method: as §1

[10] = tested on: ECHOG Barnyardgrass; experiment: Preemergence herbicidal evaluation, ECHOG; type: in vivo, Echinochloa crus-galli, (L.) Beau; conditions: rated four to five weeks after treatment
Summary of the method: as §2

[11] = tested on: ORYSAT Rice, Tebonnet; experiment: Postemergence herbicidal evaluation, ORYSAT; type: in vivo, Oryza sativa, (L.); conditions: rated two - three weeks after treatment
Summary of the method: as §1

[12] = tested on: ORYSAT Rice, Tebonnet; experiment: Preemergence herbicidal evaluation, ORYSAT; type: in vivo, Oryza sativa, (L.); conditions: rated four to five weeks after treatment
Summary of the method: as §2

COC(=O)COc1ccc(-n2nnc3cc(F)c(-n4c(=O)cc(C(F)(F)F)n(C)c4=O)cc32)cc1 [Example 45]
9.0: Postemergence herbicidal rating ZEAMX ([2]; rate 0.062 kg/ha) | Preemergence herbicidal rating, SETVI ([3]; rate 0.062 kg/ha) | Preemergence herbicidal rating, SETVI ([3]; rate 0.125 kg/ha) | Preemergence herbicidal rating, CHEAL ([8]; rate 0.062 kg/ha) | Preemergence herbicidal rating, CHEAL ([8]; rate 0.125 kg/ha)
3.5: Postemergence herbicidal rating ORYSAT ([11]; rate 0.062 kg/ha)
1.0: Preemergence herbicidal rating, TRZAWR ([6]; rate 0.125 kg/ha) | Postemergence herbicidal rating GALAP ([7]; rate 0.032 kg/ha) | Postemergence herbicidal rating ORYSAT ([11]; rate 0.016 kg/ha)
0.0: Postemergence herbicidal rating CASOB ([1]; rate 0.008 kg/ha) | Postemergence herbicidal rating CASOB ([1]; rate 0.016 kg/ha) | Preemergence herbicidal rating, SETVI ([3]; rate 0.016 kg/ha) | Preemergence herbicidal rating, SETVI ([3]; rate 0.032 kg/ha) | Preemergence herbicidal rating, AMBEL ([4]; rate 0.016 kg/ha) | Preemergence herbicidal rating, AMBEL ([4]; rate 0.032 kg/ha) | Preemergence herbicidal rating, AMBEL ([4]; rate 0.062 kg/ha) | Preemergence herbicidal rating, AMBEL ([4]; rate 0.125 kg/ha) | Preemergence herbicidal rating, IPOHE ([5]; rate 0.016 kg/ha) | Preemergence herbicidal rating, IPOHE ([5]; rate 0.032 kg/ha) | Preemergence herbicidal rating, IPOHE ([5]; rate 0.062 kg/ha) | Preemergence herbicidal rating, TRZAWR ([6]; rate 0.016 kg/ha) | Preemergence herbicidal rating, TRZAWR ([6]; rate 0.032 kg/ha) | Preemergence herbicidal rating, TRZAWR ([6]; rate 0.062 kg/ha) | Postemergence herbicidal rating GALAP ([7]; rate 0.008 kg/ha) | Postemergence herbicidal rating GALAP ([7]; rate 0.016 kg/ha) | Preemergence herbicidal rating, CHEAL ([8]; rate 0.016 kg/ha) | Preemergence herbicidal rating, CHEAL ([8]; rate 0.032 kg/ha) | Preemergence herbicidal rating, ECHCG ([10]; rate 0.016 kg/ha) | Preemergence herbicidal rating, ECHCG ([10]; rate 0.032 kg/ha) | Preemergence herbicidal rating, ECHCG ([10]; rate 0.062 kg/ha) | Preemergence herbicidal rating, ECHCG ([10]; rate 0.125 kg/ha) | Preemergence herbicidal rating, ORYSAT ([12]; rate 0.016 kg/ha) | Preemergence herbicidal rating, ORYSAT ([12]; rate 0.032 kg/ha) | Preemergence herbicidal rating, ORYSAT ([12]; rate 0.062 kg/ha)
0.5: Postemergence herbicidal rating ORYSAT ([11]; rate 0.008 kg/ha)
6.5: Postemergence herbicidal rating GLXMAW ([9]; rate 0.016 kg/ha)
6.0: Postemergence herbicidal rating GLXMAW ([9]; rate 0.008 kg/ha)
2.0: Postemergence herbicidal rating ORYSAT ([11]; rate 0.032 kg/ha)
3.0: Postemergence herbicidal rating GALAP ([7]; rate 0.062 kg/ha)
5.0: Postemergence herbicidal rating CASOB ([1]; rate 0.062 kg/ha)
4.0: Postemergence herbicidal rating CASOB ([1]; rate 0.032 kg/ha) | Preemergence herbicidal rating, IPOHE ([5]; rate 0.125 kg/ha)
8.0: Postemergence herbicidal rating ZEAMX ([2]; rate 0.016 kg/ha) | Postemergence herbicidal rating ZEAMX ([2]; rate 0.032 kg/ha) | Postemergence herbicidal rating GLXMAW ([9]; rate 0.032 kg/ha) | Postemergence herbicidal rating GLXMAW ([9]; rate 0.062 kg/ha)
7.5: Postemergence herbicidal rating ZEAMX ([2]; rate 0.008 kg/ha)
